What was measured:
AKT2 = AKT2 (Homo sapiens (Human), UniProt P31751); assay: Live cell target engagement (NanoBRET) in HEK293 cells; assay type: cell-based; conditions: HEK293, 2 hours at 37° C.
AKT1 WT [1] = biological target: T1, AKT1 WT (Homo sapiens (Human), UniProt P31749); assay: as above; assay type: cell-based; conditions: HEK293, 2 hours at 37° C.
Target sequence in this assay (P31749 whole entry): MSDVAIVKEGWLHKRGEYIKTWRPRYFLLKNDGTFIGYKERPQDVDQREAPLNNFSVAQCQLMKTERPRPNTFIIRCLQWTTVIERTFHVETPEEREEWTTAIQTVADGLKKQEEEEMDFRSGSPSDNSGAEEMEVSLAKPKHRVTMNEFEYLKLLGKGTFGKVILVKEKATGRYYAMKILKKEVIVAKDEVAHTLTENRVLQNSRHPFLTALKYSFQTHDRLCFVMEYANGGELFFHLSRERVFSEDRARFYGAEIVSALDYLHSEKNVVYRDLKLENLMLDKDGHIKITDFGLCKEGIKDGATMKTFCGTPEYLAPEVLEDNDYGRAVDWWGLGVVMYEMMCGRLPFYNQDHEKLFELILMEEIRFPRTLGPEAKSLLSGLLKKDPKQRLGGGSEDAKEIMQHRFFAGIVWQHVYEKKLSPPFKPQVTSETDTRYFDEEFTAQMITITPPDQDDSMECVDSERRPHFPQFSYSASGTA

AKT1 E17K = AKT1 E17K (Homo sapiens (Human), UniProt P31749, E17K); assay: as above; assay type: cell-based; conditions: for IC50: HEK293, 2 hours at 37° C.
Chain of AKT1 E17K (P31749 whole entry E17K): as the sequence (P31749 whole entry) above, with E17K counted along it

AKT1 WT [2] = biological target: T1, AKT1 WT; assay: Intact mass spectrometry, covalent complex formation and ARQ-092 competition; assay type: binding; conditions: protein 1 μM, compound 1.5 μM, 2 hrs at 37° C., NaBH4 reduction; for covalent complex formation with AKT1 WT protein: absence of competitor; for covalent complex formation with AKT1 WT protein in presence of competitor: with ARQ092 (50 μM)
Experimental: (§1) AKT1 WT or AKT1 E17K (1 μM) was treated with a compound from Table 1 (1.5 μM) for 2 hrs at 37° C., with and without ARQ092 (50 μM) competitor as a specificity control. Reversible imines were captured by reductive amination with 5 mM NaBH4 for 5 min. Reduction reactions were quenched by diluting the sample in equal volume acetonitrile+1% TFA, then analyzed by LCMS.
(§2) FIGS. 1 to 25 provide intact mass spectra for AKT1 WT protein and AKT1 E17K mutant protein after incubation with compounds of the present disclosure and subsequent borohydride reduction. […] Further, FIGS. 1 to 10, 12, and 14 to 25 each provide intact mass spectra following the incubation of an AKT1 protein with a compound of the present disclosure both in the absence of a competitor molecule (i.e., ARQ-092, a molecule known to bind to and inhibit the function of AKT1); and in the presence of a significant stoichiometric excess of a competitor molecule.
Target sequence in this assay (P31749 2-480): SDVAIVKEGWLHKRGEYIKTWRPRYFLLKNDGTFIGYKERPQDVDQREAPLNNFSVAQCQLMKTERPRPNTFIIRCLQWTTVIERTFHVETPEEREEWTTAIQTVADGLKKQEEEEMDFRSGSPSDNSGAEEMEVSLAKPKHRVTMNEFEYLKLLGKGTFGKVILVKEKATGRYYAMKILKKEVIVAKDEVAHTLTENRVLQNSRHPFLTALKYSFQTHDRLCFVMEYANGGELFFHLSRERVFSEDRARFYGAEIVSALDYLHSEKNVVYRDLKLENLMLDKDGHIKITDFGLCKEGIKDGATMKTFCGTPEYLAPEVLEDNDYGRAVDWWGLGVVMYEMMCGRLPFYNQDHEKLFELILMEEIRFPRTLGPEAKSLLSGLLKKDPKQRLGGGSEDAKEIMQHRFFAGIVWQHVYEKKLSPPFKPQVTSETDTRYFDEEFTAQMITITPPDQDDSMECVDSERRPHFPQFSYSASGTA

AKT1 E17K mutant protein = AKT1 E17K mutant protein (Homo sapiens (Human), UniProt P31749, E17K); assay: as above; assay type: binding; conditions: for covalent complex formation with AKT1 E17K mutant protein / covalent complex formation with AKT1 E17K mutant protein in presence of competitor: protein 1 μM, compound 1.5 μM, 2 hrs at 37° C., NaBH4 reduction; for covalent complex formation with AKT1 E17K mutant protein: absence of competitor; for covalent complex formation with AKT1 E17K mutant protein in presence of competitor: with ARQ092 (50 μM)
Chain of AKT1 E17K mutant protein (P31749 2-480 E17K): as the sequence (P31749 2-480) above, with E16K counted along it
Experimental: as §1, §2

Chain of AKT2 (P31751 whole entry): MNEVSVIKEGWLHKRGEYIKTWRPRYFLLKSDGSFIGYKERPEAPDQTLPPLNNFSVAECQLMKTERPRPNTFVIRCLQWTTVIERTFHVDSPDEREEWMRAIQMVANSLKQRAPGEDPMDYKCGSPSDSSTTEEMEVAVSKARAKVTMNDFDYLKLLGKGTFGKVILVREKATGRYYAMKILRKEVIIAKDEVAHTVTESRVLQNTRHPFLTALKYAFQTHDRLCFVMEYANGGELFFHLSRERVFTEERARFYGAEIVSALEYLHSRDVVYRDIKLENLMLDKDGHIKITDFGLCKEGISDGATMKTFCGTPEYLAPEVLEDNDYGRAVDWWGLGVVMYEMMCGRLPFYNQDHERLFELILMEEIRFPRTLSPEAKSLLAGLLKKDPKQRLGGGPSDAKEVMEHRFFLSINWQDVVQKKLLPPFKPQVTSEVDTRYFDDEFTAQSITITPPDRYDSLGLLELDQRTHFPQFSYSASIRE

IC50 (AKT2) [µM]	IC50 (AKT1 WT [1]) [µM]	AKT1 E17K IC50: Selectivity vs AKT1 WT (AKT1 E17K)	AKT1 E17K IC50: Selectivity vs AKT2 (AKT1 E17K)	IC50 (AKT1 E17K) [µM]	covalent complex formation with AKT1 WT protein (AKT1 WT [2])	Structure (SMILES)	covalent complex formation with AKT1 WT protein in presence of competitor (AKT1 WT [2])	covalent complex formation with AKT1 E17K mutant protein (AKT1 E17K mutant protein)	covalent complex formation with AKT1 E17K mutant protein in presence of competitor (AKT1 E17K mutant protein)	selectivity of complex formation, AKT1 E17K versus AKT1 WT (AKT1 E17K mutant protein; comparison of the spectra without competitor)
> 0.5	> 0.5	93	490	< 0.1	presence of a covalent complex	Nc1ncccc1-c1nc2ccc(-c3ccccc3)nc2n1-c1ccc(CNC(=O)C2(c3cnc(C=O)c(O)c3)CC2)cc1 [Compound 56, N-({4-[2-(2-aminopyridin-3-yl)-5-phenylimidazo[4,5-b]pyridin-3-yl]phenyl}methyl)-1-(6-formyl-5-hydroxypyridin-3-yl)cyclopropane-1-carboxamide]	Essentially no covalent complex formation	small presence of a covalent complex	Essentially no covalent complex formation	–
> 0.5	0.1 to 0.5	2.2	14	< 0.1	presence of covalent complex	Nc1ncccc1-c1nc2cccnc2n1-c1ccc(CNCCc2ccc(C=O)c(O)c2)cc1 [Compound 114, 4-(2-((4-(2-(2-aminopyridin-3-yl)-3H-imidazo[4,5-b]pyridin-3-yl)benzyl)amino)ethyl)-2-hydroxybenzaldehyde]	Essentially no covalent complex formation	presence of covalent complex	Essentially no covalent complex formation	–
< 0.1	< 0.1	1.2	4.4	< 0.1	presence of a covalent complex	Nc1ncccc1-c1nc2ccc(-n3cccn3)nc2n1-c1ccc(C2(NC(=O)Cc3ccc(C=O)c(O)c3F)CC2)cc1 [Compound 141, N-(1-{4-[2-(2-aminopyridin-3-yl)-5-(pyrazol-1-yl)imidazo[4,5-b]pyridin-3-yl]phenyl}cyclopropyl)-2-(2-fluoro-4-formyl-3-hydroxyphenyl)acetamide]	Essentially no covalent complex formation	significant presence of a covalent complex	Essentially no covalent complex formation	selective for complex formation with AKT1 E17K
> 0.5	0.1 to 0.5	5	120	< 0.1	presence of a covalent complex	CC(=O)Nc1cc(CC(=O)NCc2ccc(-n3c(-c4cccnc4N)nc4cccnc43)cc2)ccc1C=O [Compound 91, 2-(3-acetamido-4-formylphenyl)-N-(4-(2-(2-aminopyridin-3-yl)-3H-imidazo[4,5-b]pyridin-3-yl)benzyl)acetamide]	Essentially no covalent complex formation	presence of a covalent complex	Essentially no covalent complex formation	–
0.1 to 0.5	< 0.1	1.6	29	< 0.1	–	Nc1ncccc1-c1nc2ccc(-c3ccccc3)nc2n1-c1ccc(NC(=O)CCc2ccc(C=O)c(O)c2)cc1 [Compound 118, N-(4-(2-(2-aminopyridin-3-yl)-5-phenyl-3H-imidazo[4,5-b]pyridin-3-yl)phenyl)-3-(4-formyl-3-hydroxyphenyl)propanamide]	–	–	–	–
> 0.5	< 0.1	2.7	47	< 0.1	–	Nc1ncccc1-c1nc2ccc(-c3ccccn3)nc2n1-c1ccc(CNC(=O)Cc2ccc(C=O)c(O)c2)cc1 [Compound 62, N-({4-[2-(2-aminopyridin-3-yl)-5-(pyridin-2-yl)imidazo[4,5-b]pyridin-3-yl]phenyl}methyl)-2-(4-formyl-3-hydroxyphenyl)acetamide]	–	–	–	–
0.1 to 0.5	< 0.1	2.5	11	< 0.1	–	Nc1ncccc1-c1nc2ccc(-c3ccccn3)nc2n1-c1ccc(CNCCc2ccc(C=O)c(O)c2)cc1 [Compound 103, 4-{2-[({4-[2-(2-aminopyridin-3-yl)-5-(pyridin-2-yl)imidazo[4,5-b]pyridin-3-yl]phenyl}methyl)amino]ethyl}-2-hydroxybenzaldehyde]	–	–	–	–
> 0.5	< 0.1	2	38	< 0.1	–	Nc1ncccc1-c1nc2ccc(-c3ccccc3)nc2n1-c1ccc(CNC(=O)c2cc(C=O)c(O)cc2F)cc1 [Example 4, N-({4-[2-(2-aminopyridin-3-yl)-5-phenylimidazo[4,5-b]pyridin-3-yl]phenyl}methyl)-2-fluoro-5-formyl-4-hydroxybenzamide]	–	–	–	–
> 0.5	0.1 to 0.5	8.5	120	< 0.1	–	Nc1ncccc1-c1nc2cccnc2n1-c1ccc(CNC(=O)Cc2ccc(C=O)c(NC(=O)C3CC3)c2)cc1 [Compound 48, N-(5-(2-((4-(2-(2-aminopyridin-3-yl)-3H-imidazo[4,5-b]pyridin-3-yl)benzyl)amino)-2-oxoethyl)-2-formylphenyl)cyclopropanecarboxamide]	–	–	–	–
0.1 to 0.5	< 0.1	1.2	8.3	< 0.1	–	Nc1ncccc1-c1nc2ccc(-c3ccccc3)nc2n1-c1ccc(CNC(=O)Cc2ccc(C=O)c(O)c2Cl)cc1 [Compound 63, N-({4-[2-(2-aminopyridin-3-yl)-5-phenylimidazo[4,5-b]pyridin-3-yl]phenyl}methyl)-2-(2-chloro-4-formyl-3-hydroxyphenyl)acetamide]	–	–	–	–
0.1 to 0.5	< 0.1	1.3	6.5	< 0.1	–	Nc1ncccc1-c1nc2ccc(-c3ccccc3)nc2n1-c1ccc(CNC(=O)c2ccc(C=O)c(O)c2F)cc1 [Compound 85, N-({4-[2-(2-aminopyridin-3-yl)-5-phenylimidazo[4,5-b]pyridin-3-yl]phenyl}methyl)-2-fluoro-4-formyl-3-hydroxybenzamide]	–	–	–	–
0.1 to 0.5	0.1 to 0.5	1.2	4.9	< 0.1	–	CC(NC(=O)Cc1ccc(O)c(C=O)c1)c1ccc(-n2c(-c3cccnc3N)nc3ccc(-c4ccccc4)nc32)cc1 (centres unmarked) [Compound 115, N-(1-(4-(2-(2-aminopyridin-3-yl)-5-phenyl-3H-imidazo[4,5-b]pyridin-3-yl)phenyl)ethyl)-2-(3-formyl-4-hydroxyphenyl)acetamide]	–	–	–	–
< 0.1	< 0.1	1.2	2.1	< 0.1	–	Nc1ncccc1-c1nc2ccc(-c3cccc(N4CCOCC4)c3)nc2n1-c1ccc(CNCCc2ccc(C=O)c(O)c2)cc1 [Compound 108, 4-(2-((4-(2-(2-aminopyridin-3-yl)-5-(3-morpholinophenyl)-3H-imidazo[4,5-b]pyridin-3-yl)benzyl)amino)ethyl)-2-hydroxybenzaldehyde]	–	–	–	–

Structure (SMILES)	IC50 (AKT2) [µM]	IC50 (AKT1 WT [1]) [µM]	AKT1 E17K IC50: Selectivity vs AKT1 WT (AKT1 E17K)	AKT1 E17K IC50: Selectivity vs AKT2 (AKT1 E17K)	IC50 (AKT1 E17K) [µM]	covalent complex formation with AKT1 WT protein (AKT1 WT [2])	covalent complex formation with AKT1 WT protein in presence of competitor (AKT1 WT [2])	covalent complex formation with AKT1 E17K mutant protein (AKT1 E17K mutant protein)	covalent complex formation with AKT1 E17K mutant protein in presence of competitor (AKT1 E17K mutant protein)	selectivity of complex formation, AKT1 E17K versus AKT1 WT (AKT1 E17K mutant protein; comparison of the spectra without competitor)
Nc1ncccc1-c1nc2ccc(N3CCOCC3)nc2n1-c1ccc(CNCCc2ccc(C=O)c(O)c2)cc1 [Compound 107, 4-(2-((4-(2-(2-aminopyridin-3-yl)-5-morpholino-3H-imidazo[4,5-b]pyridin-3-yl)benzyl)amino)ethyl)-2-hydroxybenzaldehyde]	> 0.5	0.1 to 0.5	3.5	76	< 0.1	only peaks corresponding to unmodified WT protein	only peaks corresponding to unmodified WT protein	only peaks corresponding to unmodified mutant protein	only peaks corresponding to unmodified mutant protein	–
Nc1ncccc1-c1nc2ccc(-c3ccccc3)nc2n1-c1ccc(CNC(=O)Cc2ccc(C=O)c(O)n2)cc1 [Compound 75, N-(4-(2-(2-aminopyridin-3-yl)-5-phenyl-3H-imidazo[4,5-b]pyridin-3-yl)benzyl)-2-(5-formyl-6-hydroxypyridin-2-yl)acetamide]	> 0.5	0.1 to 0.5	1.7	3.7	0.1 to 0.5	only peaks corresponding to unmodified WT/mutant protein	–	only peaks corresponding to unmodified WT/mutant protein	–	–

— patent US20250115600A1, “COVALENT MODIFIERS OF AKT1 AND USES THEREOF” (Terremoto Biosciences, Inc., priority 2022, published 2025)
